From patent US11040036B2, “Pyruvate kinase activators for use in treating blood disorders” (Agios Pharmaceuticals, Inc., priority 2017, dated 2021)

Experiments:
[1] = molecular target: PKR K410E (Homo sapiens, UniProt P30613, K410E); assay: PKR mutant assay (AC50), PKR K410E; type: biochemical; conditions: PKR K410E mutant enzyme
Protocol: (§1) Example 11. PKR Mutant Assay
(§2) PKR or PKR mutant enzyme solution was diluted into a reaction mix, which contains 1× buffer (100 mM KCl, 50 mM Tris pH 7.5, 5 mM MgCl2) as well as PEP (cont depends on enzyme), 180 μM NADH, 0.5 units LDH, 1 mM DTT, 0.03% BSA; final assay concentrations after 1.11 fold dilution are indicated.
(§3) 2 μL of test compound was added into wells first, and then 180 μL reaction mix was added.
(§4) Reactions mixture with test compound was assembled except for ADP, and plates were stored for 60 minutes at room temperature.
(§5) 20 uL ADP was added to start reaction at room temperature and reaction progress was measured as changes in absorbance at 340 nm wavelength at room temperature.
(§6) Test Compound Preparation:
(§7) Test compound stock was made at 100× concentration in 100% DMSO (10 mM)
(§8) 1 to 3 dilutions were made for 11 points (i.e. 50 μl of first concentration added to 100 μl 100% DMSO to yield 3.33 mM, 50 μl of this added to 100 μl DMSO to yield 1.11 mM, and so forth) • 1 to 100 dilution into assay (2 μl in 200 μl) yielded starting concentration of 100 μM, decreasing 3 fold for 11 points.
(§9) Assay Buffer: 100 mM KCl, 50 mM Tris 7.5, 5 mM MgCl2, 1 ruM DTT, 0.03% BSA
(§10) Reaction Mixture: PKR mutant enzyme: 40-400 ng/well; ADP: 0.2-1.65 mM; PEP: 0.1-0.5 mM; NADH:180 μM; LDH: 0.5 units (Sigma #59023); DTT: 1 mM; BSA: 0.03%.

[2] = molecular target: T1, wild type PKR (Homo sapiens, UniProt P30613); assay: Cell based ATP assay in purified red blood cells; set-up: endogenous in cells; host or cells: purified red blood cells from blood of healthy volunteers; conditions: RBCs, overnight at 37° C., ATP levels by Cell-Titer-Glo
T1 sequence (P30613 whole entry): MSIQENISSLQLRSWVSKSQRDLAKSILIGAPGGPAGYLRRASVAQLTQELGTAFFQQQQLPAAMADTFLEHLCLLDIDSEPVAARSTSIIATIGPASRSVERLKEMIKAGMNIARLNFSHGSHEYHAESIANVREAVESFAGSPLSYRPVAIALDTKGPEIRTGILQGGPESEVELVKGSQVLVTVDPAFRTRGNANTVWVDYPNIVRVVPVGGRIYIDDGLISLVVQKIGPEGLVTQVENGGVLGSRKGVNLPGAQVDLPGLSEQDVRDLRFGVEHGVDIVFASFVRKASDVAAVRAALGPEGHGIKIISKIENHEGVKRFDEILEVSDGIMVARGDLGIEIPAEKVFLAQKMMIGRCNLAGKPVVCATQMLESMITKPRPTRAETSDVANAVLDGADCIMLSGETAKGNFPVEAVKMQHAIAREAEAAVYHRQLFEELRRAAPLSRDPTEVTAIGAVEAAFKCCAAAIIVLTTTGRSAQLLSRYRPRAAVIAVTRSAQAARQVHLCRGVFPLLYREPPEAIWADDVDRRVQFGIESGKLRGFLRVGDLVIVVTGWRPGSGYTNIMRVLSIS
Protocol: Example 16. Red Blood Cell (RBC) Purification
Fresh blood drawn from healthy volunteers into K2EDTA tubes was collected. Whole blood was pelleted by spinning at 500 g for 10 minutes. Cut transfusion bag port off of Purecell leukocyte reduction neofilter (Fisher NCO267633) one (1) inch above filter. Attach a 10 ml syringe barrel to the remaining cut tubing attached to neofilter. The plasma layer was removed from the pellet of the whole blood and the pellet was resuspended in 2× volume of phosphate buffered saline (PBS). Transfer 9 ml re-suspended blood cell pellet to prepared 10 ml syringe that is attached to the neofilter. Allow whole blood to gravity flow through filter until all fluid runs through upper tubing into filter disc. Add plunger to the syringe, remove syringe from clamp and invert the filter, then plunge air through the syringe filter system. Using a new 5 ml syringe, remove filtered RBCs from the bag by the syringe port and transfer purified RBCs to a 5 ml snap cap tube that has been incubated on ice. Spin 5 ml snap cap tube at 500 g for 10 minutes at 15 C, aspirate supernatant and resuspend in AGAM (1×PBS, 1% glucose, 170 mg/L adenine, 5.25 g/L mannitol) at a density of 4×10^9 cells/mL.
Example 17. Cell Based ATP Assay
For cell based ATP assays, the compound as described herein was prepared in 100% DMSO as a 10 mM stock. Serial dilutions (1:4) were performed in 96-well V-bottom storage plate and then added 1:100 to 96-well V-bottom plates containing AGAM. RBCs were diluted in AGAM media to a density of 1×10^7 cells/mL before added 90 μL/well to black clear bottom assay plates (final compound concentration at 0.1% DMSO concentration). Assay plates were sealed using aluminum foil seals and incubated overnight at 37° C. in a humidified chamber. ATP levels were read out using Cell-Titer-Glo (Promega).

[3] = molecular target: T1, wild type PKR; assay: PKR mutant assay (AC50), wild type PKR; type: biochemical; conditions: wild type PKR enzyme; read-out: PKR WT AC50
Protocol: as §1, §2, §3, §4, §5, §6, §7, §8, §9, §10

[4] = molecular target: PKR R510Q (Homo sapiens, UniProt P30613, R510Q); assay: PKR mutant assay (AC50), PKR R510Q; type: biochemical; conditions: PKR R510Q mutant enzyme; read-out: PK R510Q AC50
Sequence of PKR R510Q (P30613 whole entry R510Q): as the sequence (P30613 whole entry) above, with R510Q counted along it
Protocol: as §1, §2, §3, §4, §5, §6, §7, §8, §9, §10

Sequence of PKR K410E (P30613 whole entry K410E): as the sequence (P30613 whole entry) above, with K410E counted along it

AC50 [1]	AC50 [2]	AC50 [3]	AC50 [4]	Compound
< 300 nM	> 1000 nM	< 300 nM	301 to 800 nM	Cn1c2nc(Cc3cc[nH]n3)sc2c2cnn(Cc3cccc(=O)[nH]3)c(=O)c21
< 300 nM	≤ 1000 nM	< 300 nM	< 300 nM	Cc1ccc(Cn2ncc3c4sc(Cc5cc[nH]n5)nc4n(C)c3c2=O)nc1Cl
< 300 nM	≤ 1000 nM	< 300 nM	< 300 nM	Cn1c2nc(Cc3cc[nH]n3)sc2c2cnn(Cc3csc(Cl)n3)c(=O)c21
< 300 nM	≤ 1000 nM	< 300 nM	< 300 nM	Cn1c2nc(Cc3cc[nH]n3)sc2c2cnn(Cc3ccc(F)c(N)n3)c(=O)c21
< 300 nM	≤ 1000 nM	< 300 nM	< 300 nM	COc1ncccc1Cn1ncc2c3sc(Cc4cc[nH]n4)nc3n(C)c2c1=O
< 300 nM	≤ 1000 nM	< 300 nM	< 300 nM	Cn1c2nc(Cc3cc[nH]n3)sc2c2cnn(Cc3ccc[nH]c3=O)c(=O)c21
< 300 nM	≤ 1000 nM	< 300 nM	< 300 nM	Cn1ccc(Cn2ncc3c4sc(Cc5cc[nH]n5)nc4n(C)c3c2=O)n1
< 300 nM	≤ 1000 nM	< 300 nM	< 300 nM	Cn1c2nc(Cc3cc[nH]n3)sc2c2cnn(Cc3cccc(C(N)=O)n3)c(=O)c21
< 300 nM	≤ 1000 nM	< 300 nM	< 300 nM	Cn1c2nc(Cc3cc[nH]n3)sc2c2cnn(Cc3cccc(NO)n3)c(=O)c21
< 300 nM	≤ 1000 nM	< 300 nM	< 300 nM	Cn1c2nc(Cc3cc[nH]n3)sc2c2cnn(Cc3csc(C(N)=O)n3)c(=O)c21
< 300 nM	≤ 1000 nM	< 300 nM	< 300 nM	Cn1c2nc(Cc3cc[nH]n3)sc2c2cnn(Cc3ncc[nH]3)c(=O)c21
< 300 nM	≤ 1000 nM	< 300 nM	< 300 nM	Cn1c2nc(Cc3cc[nH]n3)sc2c2cnn(Cc3c[nH]c(N)n3)c(=O)c21
301 to 800 nM	> 1000 nM	301 to 800 nM	> 800 nM	Cn1c2nc(Cc3cc[nH]n3)sc2c2cnn(Cc3cc(C(N)=O)[nH]n3)c(=O)c21
< 300 nM	≤ 1000 nM	< 300 nM	< 300 nM	Cn1c2nc(Cc3cc[nH]n3)sc2c2cnn(Cc3ccc(=O)[nH]c3)c(=O)c21
< 300 nM	≤ 1000 nM	< 300 nM	< 300 nM	COc1ccc(Cn2ncc3c4sc(Cc5cc[nH]n5)nc4n(C)c3c2=O)cn1

Further lines, the molecule ahead of its results:

Compound	AC50 [1]	AC50 [2]	AC50 [3]	AC50 [4]
Cn1c2nc(Cc3nc(N)sc3F)sc2c2cnn(Cc3cc[nH]n3)c(=O)c21	< 300 nM	≤ 1000 nM	< 300 nM	< 300 nM
CC(c1cc[nH]n1)c1nc2c(s1)c1cnn(Cc3cc[nH]n3)c(=O)c1n2C (centres unmarked)	< 300 nM	≤ 1000 nM	< 300 nM	< 300 nM
Cn1c2nc(Cc3csc(CO)n3)sc2c2cnn(Cc3cccc(N)n3)c(=O)c21	< 300 nM	≤ 1000 nM	< 300 nM	< 300 nM
CC(=O)Nc1ccc(F)c(Cn2ncc3c4sc(Cc5cnn(C)c5)nc4n(C)c3c2=O)n1	> 800 nM	> 1000 nM	> 800 nM	> 800 nM
Cn1c2nc(Cc3cc[nH]n3)sc2c2cnn(Cc3n[nH]cc3C(N)=O)c(=O)c21	< 300 nM	≤ 1000 nM	< 300 nM	< 300 nM
Cn1c2nc(Cn3ccnn3)sc2c2cnn(Cc3cc[nH]n3)c(=O)c21	< 300 nM	≤ 1000 nM	< 300 nM	< 300 nM
Cc1cn(C)nc1Cn1ncc2c3sc(Cc4cc[nH]n4)nc3n(C)c2c1=O	< 300 nM	≤ 1000 nM	< 300 nM	< 300 nM
Cn1c2nc(Cc3ncsc3Cl)sc2c2cnn(Cc3c[nH]nn3)c(=O)c21	< 300 nM	≤ 1000 nM	< 300 nM	< 300 nM
Cn1c2nc(Cn3cccn3)sc2c2cnn(Cc3cc[nH]n3)c(=O)c21	< 300 nM	≤ 1000 nM	< 300 nM	< 300 nM
Cc1scnc1Cc1nc2c(s1)c1cnn(Cc3c[nH]nn3)c(=O)c1n2C	< 300 nM	≤ 1000 nM	< 300 nM	< 300 nM
Cn1c2nc(Cc3c[nH]cn3)sc2c2cnn(Cc3ncsc3Cl)c(=O)c21	< 300 nM	≤ 1000 nM	< 300 nM	< 300 nM
Cn1c2nc(Cc3c[nH]nn3)sc2c2cnn(Cc3cscn3)c(=O)c21	< 300 nM	≤ 1000 nM	< 300 nM	< 300 nM
Cn1c2nc(Cc3ncsc3Cl)sc2c2cnn(Cc3cc[nH]n3)c(=O)c21	< 300 nM	≤ 1000 nM	< 300 nM	< 300 nM
Cn1c2nc(Cc3csc(CO)n3)sc2c2cnn(Cc3cn[nH]n3)c(=O)c21	< 300 nM	≤ 1000 nM	< 300 nM	< 300 nM
Cn1ccc(Cn2ncc3c4sc(Cc5n[nH]cc5F)nc4n(C)c3c2=O)n1	< 300 nM	≤ 1000 nM	< 300 nM	< 300 nM
Cc1scnc1Cn1ncc2c3sc(Cc4n[nH]cc4F)nc3n(C)c2c1=O	< 300 nM	≤ 1000 nM	< 300 nM	< 300 nM
Cn1c2nc(Cc3ccccn3)sc2c2cnn(Cc3n[nH]cc3F)c(=O)c21	< 300 nM	≤ 1000 nM	< 300 nM	< 300 nM
